According to patent US20110207796A1, “ALPHA-SYNUCLEIN KINASE” (Elan Pharma International Limited, priority 2008, published 2011):
Like-named read-outs stand apart in the source and are kept apart here.

Columns and labels:
[1] = tested on: synuclein phosphorylation by endogenous kinase; assay: kinase inhibitor treatment of mouse cortical cultures (MCC), total and phospho-synuclein ELISA; type: cell-based
Procedure: Mouse cortical cultures from fetal (i) Swiss-Webster, (ii) C56BL/6 WT and (iii) C56BL/6 E46K-Synuclein Trangenic mice were prepared and maintained in B27/DMEM/1% Penicillin-Streptomycin at 37° C./10% CO2 for three to fourteen days and then treated with kinase inhibitors.
Cultures were exposed to inhibitors for two hours in B27/DMEM/1% Penicillin-Streptomycin. Cells were immediately washed in 100 μL of PBS plus Mg^2+ and Ca^2+, and harvested in ice-cold CEB minus EGTA plus protease inhibitors, frozen on dry ice and stored at −80° C. until processed. A Micro BCA (Pierce) total protein assay, and total synuclein and phospho-synuclein ELISAs were performed on each plate of treated cells using standard methods.

[2] = tested on: synuclein phosphorylation by constitutively active PLK2 (caPLK2); assay: kinase inhibitor treatment of RVM cultures transduced with E46K-synuclein plus ca-PLK2; type: cell-based; conditions: rat ventral mesencephalon cultures
Procedure: (§1) Rat Ventral Mesencephalon (RVM) cultures were prepared from E15 Wistar rats. The RVM cultures were cultured for 2 days and transduced with 0.75 MOI E46K-Synuclein lentivirus alone, or 0.75 MOI E46K-Synuclein lentivirus plus 0.75 MOI ca-PLK2 lentivirus. […] Transduced cultures were maintained in neuronal media with B27/1% FBS and 37° C./5% CO2 until treated with inhibitors. On DIV 17 (which corresponds to 15 days after viral transduction of the cultures) cells were treated with inhibitors for two hours. Cells were then harvested as detailed above in neuronal media with B27/1% FBS. A Micro BCA (Pierce) total protein assay, and total synuclein and phospho-synuclein ELISAs were performed on each plate of treated cells using standard methods.

[3] = molecular target: T1, PLK2 (Homo sapiens, UniProt Q9NYY3); assay: HEK-293 cells overexpressing synuclein and PLK2, inhibition of synuclein phosphorylation; type: cell-based; set-up: expressed in transfected cells; host or cells: HEK-293
T1 sequence (Q9NYY3 whole entry): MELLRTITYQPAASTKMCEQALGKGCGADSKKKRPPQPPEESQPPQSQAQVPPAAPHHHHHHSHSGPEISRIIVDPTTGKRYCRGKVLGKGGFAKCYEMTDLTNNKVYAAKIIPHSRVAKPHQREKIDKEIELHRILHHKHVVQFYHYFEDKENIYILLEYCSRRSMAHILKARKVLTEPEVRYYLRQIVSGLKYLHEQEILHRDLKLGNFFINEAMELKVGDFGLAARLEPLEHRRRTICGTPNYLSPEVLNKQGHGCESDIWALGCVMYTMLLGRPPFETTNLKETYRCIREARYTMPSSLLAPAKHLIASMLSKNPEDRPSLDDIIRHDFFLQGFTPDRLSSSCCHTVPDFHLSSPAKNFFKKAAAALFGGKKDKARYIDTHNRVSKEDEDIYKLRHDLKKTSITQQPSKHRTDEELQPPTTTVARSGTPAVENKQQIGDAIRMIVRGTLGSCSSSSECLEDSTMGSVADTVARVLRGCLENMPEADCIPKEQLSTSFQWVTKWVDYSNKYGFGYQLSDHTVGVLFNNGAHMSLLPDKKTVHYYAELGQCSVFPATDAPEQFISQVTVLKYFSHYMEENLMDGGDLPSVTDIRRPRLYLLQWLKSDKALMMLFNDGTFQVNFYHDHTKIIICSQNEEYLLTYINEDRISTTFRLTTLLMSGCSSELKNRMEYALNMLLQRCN
Procedure: (§2) All vectors had the sequence coding for the protein of interest. Transfection was accomplished using Lipofectamine 2000 (Invitrogen, Carlsbad, Calif.) with 0.08 μg vector. Cells were washed and harvested 48 hours post-transfection. A Micro BCA (Pierce) total protein assay and total synuclein and phospho-synuclein ELISAs were performed on each plate of treated cells.

[4] = molecular target: T1, PLK2; assay: in vitro biochemical assay of PLK2-driven synuclein phosphorylation; conditions: for IC50: in vitro PLK2-driven synuclein phosphorylation, read-out: IC50, Straight Biochemical
Procedure: The reaction was incubated at 37° C. The activity was analyzed by autoradiography.
In vitro biochemical assays using each of the four PLK family members as the kinase to phosphorylate synuclein were conducted.

[5] = tested on: synuclein phosphorylation by endogenous kinase; assay: kinase inhibitor treatment of rat ventral mesencephalon (RVM) cultures transduced with E46K-synuclein; type: cell-based
Procedure: as §1

[6] = tested on: endogenous kinase (synuclein phosphorylation); assay: HEK-293 cells overexpressing synuclein with empty vector, inhibition of synuclein phosphorylation; type: cell-based, human; conditions: 293 cells, Table 18, read-out: EC50, Endogenous Kinase (293)
Procedure: as §2

[7] = tested on: synuclein phosphorylation; assay: overexpression of PLK family members with WT-synuclein in HEK-293 cells, phospho-synuclein ELISA; type: cell-based, human
Procedure: as §2, with “HEK-293 naïve cells were transfected with an expression vector encoding PLK1, PLK2, PLK3, or PLK4 under the control of a CMV promoter, or empty vector, together with an expression vector encoding WT-synuclein. All” for “All”

[8] = tested on: synuclein phosphorylation (serine-129); assay: inhibition of synuclein phosphorylation across the cellular paradigms (primary neuronal cultures and 293 cells); type: cell-based, mouse, rat and human; conditions: cell types tested
[9] = E46K-Synuclein transgenic mouse cortical cultures, read-out: EC50, E46K-Syn TG MCC
[10] = WT mouse cortical cultures, read-out: EC50, WT-MCC

Compound	EC50 [2]	IC50 [4]	EC50 [5]	EC50 [1, 9]	EC50 [1, 10]	further results
Brc1c(Br)c(Br)c2[nH]nnc2c1Br [TBB]	–	–	–	–	–	effect on synuclein phosphorylation ([1]; MCC, even at concentrations of 100 μM): no effect
COC[C@H]1OC(=O)c2coc3c2[C@@]1(C)C1=C(C3=O)[C@@H]2CCC(=O)[C@@]2(C)C[C@H]1OC(C)=O [Wortmannin]	> 100 µM	> 100 µM	> 100 µM	> 100 µM	> 100 µM	EC50 [3]: > 100 µM; EC50 ([6]; Homo sapiens, HEK293): > 100 µM
Over-Expressed PLK1	–	–	–	–	–	Proportion of total synuclein that is phoshorylated at ser-129 ([7]; 48 hours post-transfection, with WT-synuclein): 4.1%; Fold Change in Percent Synuclein Phosphorylation ([7]; relative to endogenous kinase (2.0%)): 2.1
Scytonemin	> 100 µM	> 100 µM	> 100 µM	> 100 µM	> 100 µM	inhibition of 50% of synuclein phosphorylation in cells [8]: did not inhibit 50%; EC50 ([3]; 293 cells, Table 18, read-out: EC50, Over-Expressed PLK2 (293)): > 100 µM; inhibition of 50% of synuclein phosphorylation in the in vitro assay ([4]; PLK2-driven phosphorylation in vitro): did not inhibit 50%; EC50 [6]: > 100 µM
